From patent US6979676B2 (priority 2002, dated 2005)
Like-named read-outs stand apart in the source and are kept apart here.

Experiments:
[1] = Solubility of Formula I in various vehicles; type: physicochemical; settings: thermodynamic from solid, room temperature after 1 day
[2] = Stability of Formula I in PG/water or PG/buffers (HPLC purity, initial point vs 80° C./4 days); type: physicochemical; settings: 5 mg/mL, initial point and 80° C./4 days
[3] = Degradation rate of Formula I in various pH conditions (T90 at 80° C.); type: physicochemical
[4] = physchem
[5] = Stability of Formula I in various PG/buffer solutions (HPLC purity, initial point vs 80° C./8 days); type: physicochemical; settings: initial point and 80° C./8 days
[6] = 50% PG/75 mM citrate buffer (pH = 4)

O=C1c2c(c3c4ccc(O)cc4n(C4OC(CO)C(O)C(O)C4O)c3c3[nH]c4cc(O)ccc4c23)C(=O)N1NC(CO)CO [Formula I, 12,13-dihydro-2,10-dihydroxy-6-N-(1-hydroxymethyl-2-hydroxyethylamino)-13-(β-D-glucopyranosyl)-5H-indolo[2,3-α]pyrrolo[3,4-c]carbazole-5,7(6H)-dione]
solubility at 1 day ([1]; aqueous buffer, 50 mM citrate buffer (pH = 3)): 920 µg/mL
solubility at 1 day ([1]; aqueous buffer, 50 mM citrate buffer (pH = 4)): 810 µg/mL
solubility at 1 day ([1]; aqueous buffer, 50 mM citrate buffer (pH = 5)): 720 µg/mL
solubility at 1 day ([1]; aqueous buffer, 50 mM citrate buffer (pH = 6)): 720 µg/mL
solubility at 1 day ([1]; aqueous buffer, 50 mM citrate buffer (pH = 7)): 670 µg/mL
solubility at 1 day ([1]; aqueous with cosolvent or surfactant or cyclodextrin, 25% PEG 400/water (w/v)): 16000 µg/mL
solubility at 1 day ([1]; aqueous with cosolvent or surfactant or cyclodextrin, 25% PG/water (w/v)): 4000 µg/mL
solubility at 1 day ([1]; aqueous with cosolvent or surfactant or cyclodextrin, 40% PG/water (w/v)): 12000 µg/mL
solubility at 1 day ([1]; aqueous with cosolvent or surfactant or cyclodextrin, 50% PEG 400/water (w/v)): 25000 µg/mL
solubility at 1 day ([1]; aqueous with cosolvent or surfactant or cyclodextrin, 50% PG/50 mM citrate buffer (pH = 3)): 24000 µg/mL
solubility at 1 day ([1]; aqueous with cosolvent or surfactant or cyclodextrin, 50% PG/50 mM citrate buffer (pH = 4)): 25000 µg/mL
solubility at 1 day ([1]; aqueous with cosolvent or surfactant or cyclodextrin, 50% PG/50 mM citrate buffer (pH = 5)): 26000 µg/mL
solubility at 1 day ([1]; aqueous with cosolvent or surfactant or cyclodextrin, 50% PG/50 mM citrate buffer (pH = 6)): 27000 µg/mL
solubility at 1 day ([1]; aqueous with cosolvent or surfactant or cyclodextrin, 50% PG/50 mM citrate buffer (pH = 7)): 27000 µg/mL
solubility at 1 day ([1]; aqueous with cosolvent or surfactant or cyclodextrin, 50% PG/water (w/v)): 24000 µg/mL
solubility at 1 day ([1]; aqueous with cosolvent or surfactant or cyclodextrin, 75% PEG 400/water (w/v)): 24000 µg/mL
solubility at 1 day ([1]; aqueous with cosolvent or surfactant or cyclodextrin, 75% PG/water (w/v)): 45000 µg/mL
solubility at 1 day ([1]; organic solvent or mixture, 100% PEG 400): < 670 µg/mL
solubility at 1 day ([1]; organic solvent or mixture, 100% PG): 1200 µg/mL
solubility at 1 day ([1]; saline or isotonic, 5% glucose/water): 600 µg/mL
solubility at 1 day ([1]; water): 620 µg/mL
Stability of Formula I (purity by HPLC) (1 month, 0.15 mg/mL): −0.68%
Stability of Formula I (purity by HPLC) (50% PEG 400/water, 10 mg/mL, initial point and 40° C./1 month): −2.9%
Stability of Formula I (purity by HPLC) (50% PG/water, 10 mg/mL, initial point and 40° C./1 month): −0.03%
Stability of Formula I (purity by HPLC) ([2]; 50% PG/75 mM citrate buffer (pH = 3)): −2.4%
Stability of Formula I (purity by HPLC) [2, 6]: −2.2%
Stability of Formula I (purity by HPLC) ([2]; 50% PG/75 mM citrate buffer (pH = 5)): −2.9%
Stability of Formula I (purity by HPLC) ([2]; 50% PG/water): −9.3%
T90 (time required to degrade Formula I to 90% of the initial concentration) ([3]; pH 2): 0.9 days
T90 (time required to degrade Formula I to 90% of the initial concentration) ([3]; pH 3, extrapolated data): 19 days
T90 (time required to degrade Formula I to 90% of the initial concentration) ([3]; pH 4, extrapolated data): 89 days
T90 (time required to degrade Formula I to 90% of the initial concentration) ([3]; pH 5, extrapolated data): 7.8 days
T90 (time required to degrade Formula I to 90% of the initial concentration) ([3]; pH 6): 2.3 days
T90 (time required to degrade Formula I to 90% of the initial concentration) ([3]; pH 7): 0.233 days
T90 (time required to degrade Formula I to 90% of the initial concentration) ([3]; pH 8): 0.0194 days
T90 (time required to degrade Formula I to 90% of the initial concentration) ([3]; pH 9): 0.00486 days
T90 (time required to degrade Formula I to 90% of the initial concentration) ([3]; pH 10): 0.000833 days
solubility ([4]; aqueous with cosolvent or surfactant or cyclodextrin): 10000 µg/mL
solubility ([4]; saline or isotonic): 150 µg/mL
Stability of Formula I (purity by HPLC) ([5]; 50% PG/50 mM citrate buffer (pH = 4)): −5.50%
Stability of Formula I (purity by HPLC) ([5]; 50% PG/50 mM tartrate buffer (pH = 4)): −6.12%
Stability of Formula I (purity by HPLC) [5, 6]: −6.49%
Stability of Formula I (purity by HPLC) ([5]; 50% PG/water): −30.68%
